Measured values as given in US4151282A, “Compositions and methods for treating diabetic complications” (A. H. Robins Company, Inc., priority 1977, dated 1979).

What was measured:
[1] = target: T1, Aldose reductase isolated from bovine lens (Bos taurus, UniProt P16116); assay: Inhibition of aldose reductase isolated from bovine lens (Lineweaver-Burk); format: biochemical; conditions: procedure of Lineweaver and Burk, read-out: Amount which inhibits the maximum velocity of the aldose reductase activity by 50% (IC50)
T1 construct: Aldose reductase was isolated from bovine lens; from tissue; host or cells: bovine lens
Experimental: The ability of 4,5-dihydro-4H-pyrrolo[3,2,1-ij]quinoline-1,2-dione to inhibit aldose reductase activity was determined according to the procedure of Lineweaver, H., and Burk D., The Determination of Enzyme Dissociation Constants, J. Am. Chem. Soc. 658-666 (1934).
Aldose reductase was isolated from bovine lens and the activity of the enzyme determined according to Gabbay, R. H. and Kinoshita, J. H., Methods in Enzymology, Vol. XLI (B) 37:159.

aldose reductase = assay: Lens polyol (dulcitol) accumulation in galactose-fed rats; format: in vivo, rat (male albino, Spraque-Dawley); conditions: for Mean Polyol Accumulation, Micromoles Dulcitol/g of Tissue: rat lens 24 h after third dose
Experimental: As discussed hereinabove, sugar cataract formation is a frequent complication of the diabetic patient and their occurrence is apparent even in patients where diabetes appears controlled. […] The accumulation of polyols in the lens tissue results in osmotic and histological changes which are characteristic of sugar cataracts. […] Control rats received a 10% galactose solution at a dose level of 10 ml/kg. daily for three days. The total dose was 1 g/kg daily. Six animals per control group were used. Groups receiving galactose plus test drug contained three rats. The routine starting dose of a test drug was 100 mg/kg. orally for three days with galactose given simultaneously. The test drug was administered at a volume of 5 ml/kg. The test drug solution and the galactose solution were administered together. Twenty-four hours after the third dose the lens of the eyeballs were carefully removed from the sacrificed rats and the polyol content of the lens determined according to West and Rapport, Proc. Soc. Exp. Biol. Med. 70, 141-142 (1949).

IC50 [1] [µM]	Compound	Mean Polyol Accumulation, Micromoles Dulcitol/g of Tissue (aldose reductase; Experiment No. 1, 100 mg/kg PO daily for three days with galactose 1 g/kg daily, galactose controls 3.7)	Mean Polyol Accumulation, %± Control (aldose reductase; Experiment No. 1, 100 mg/kg PO daily for three days with galactose, rat lens, vs galactose controls) [%]	Mean Polyol Accumulation, %± Control (aldose reductase; po, 100 mg/kg, 72 h) [%]	Mean Polyol Accumulation, Micromoles Dulcitol/g of Tissue (aldose reductase; Experiment No. 1, 200 mg/kg PO daily for three days with galactose 1 g/kg daily, galactose controls 3.7)	Mean Polyol Accumulation, %± Control (aldose reductase; Experiment No. 1, 200 mg/kg PO daily for three days with galactose, rat lens, vs galactose controls) [%]	Mean Polyol Accumulation, Micromoles Dulcitol/g of Tissue (aldose reductase; Experiment No. 2, 100 mg/kg PO daily for three days with galactose 1 g/kg daily, galactose controls 4.3)	Mean Polyol Accumulation, %± Control (aldose reductase; Experiment No. 2, 100 mg/kg PO daily for three days with galactose, rat lens, vs galactose controls)
80	O=C1C(=O)N2CCCc3cccc1c32 [AHR-5191, 5,6-dihydro-4H-pyrrolo[3,2,1-ij]quinoline-1,2-dione]	2.1 Micromoles Dulcitol/g of Tissu	-43.2	-37.0				
90	O=C(O)CN1C(=O)c2cccc3cccc(c23)C1=O [Ay-22,284, 1,3-dioxo-1H-benz[de]isoquinoline-2(3H) acetic acid]				2.7 Micromoles Dulcitol/g of Tissu	-27	5.9 Micromoles Dulcitol/g of Tissu	+37.2%
